In publication PMC4579270, “Identification and Characterization of an Irreversible Inhibitor of CDK2” (Chemistry & Biology, 2015):

Columns and labels:
Assay in all cases: Dundee protein kinase screen
Type in all cases: biochemical
AMPK = test system: AMPK
Protocol: (§1) Prior to determining its cellular activity, we carried out a screen to assess its selectivity against a panel of 131 protein kinases under conditions that would not distinguish between a reversible or irreversible mode of action. […] These 13 kinases and 29 additional kinases, selected for their known sensitivity to other inhibitors within the purine series, were then tested in a modified screening format in which the assay was repeated following a 4-hr pre-incubation (Table S3B). […] However, conformational flexibility around the active site may promote such an interaction with a residue from another part of the structure ([Martin et al., 2012]).
(§2) Table S3, Related to Figure 4. NCL-0006300 protein kinase selectivity. (A) NU6300 was tested at a single concentration of 1µM against 131 protein kinases present in a Dundee protein kinase screen (Bain et al., 2007). Values given are % activity remaining and are the average of duplicate measurements: 0-25% (red), 26-50% (yellow), 51-80% (black) and above 81% (green). The kinase domain sequences (as defined by UniProt) of […]
(§3) have a lysine residue at a position close to CDK2 Lys88 or Lys89. However, in the structure of tyrosine-protein kinase BTK (PDB ID: 3GEN) the residue equivalent to CDK2 Asp86 is Cys481 and therefore there is the potential for a covalent adduct to be formed through this side chain. […]

DYRK2 = DYRK2 (Homo sapiens, UniProt Q92630); settings: DYRK2, 1µM; read-out: %Remaining activity at 1µM NU6300
Protocol: as §1, §2, §3

EIF2AK3 = EIF2AK3 (Homo sapiens, UniProt Q9NZJ5); settings: EIF2AK3, 1µM; read-out: %Remaining activity at 1µM NU6300
Protocol: as §1, §2, §3

CK1δ = CK1δ (Homo sapiens, UniProt P48730); settings: read-out: %Remaining activity at 1µM NU6300
Protocol: as §1, §2, §3

CK1γ2 = CK1γ2 (Homo sapiens, UniProt P78368); settings: CK1γ2, 1µM; read-out: %Remaining activity at 1µM NU6300
Protocol: as §1, §2, §3

DDR2 = DDR2 (Homo sapiens, UniProt Q16832); settings: DDR2, 1µM; read-out: %Remaining activity at 1µM NU6300
Protocol: as §1, §2, §3

MLK1 = MLK1 (Homo sapiens, UniProt P80192); settings: MLK1, 1µM; read-out: %Remaining activity at 1µM NU6300
Protocol: as §1, §2, §3

JNK3 = JNK3 (Homo sapiens, UniProt P53779); settings: JNK3, 1µM; read-out: %Remaining activity at 1µM NU6300
Protocol: as §1, §2, §3

ABL = ABL (Homo sapiens, UniProt P00519); settings: read-out: %Remaining activity at 1µM NU6300
Protocol: as §1, §2, §3

CSK = CSK (Homo sapiens, UniProt P41240); settings: read-out: %Remaining activity at 1µM NU6300
Protocol: as §1, §2, §3

IRR = IRR (Homo sapiens, UniProt P14616); settings: read-out: %Remaining activity at 1µM NU6300
Protocol: as §1, §2, §3

CHK2 = CHK2 (Homo sapiens, UniProt O96017); settings: CHK2, 1µM; read-out: %Remaining activity at 1µM NU6300
Protocol: as §1, §2, §3

MELK = MELK (Homo sapiens, UniProt Q14680); settings: read-out: %Remaining activity at 1µM NU6300
Protocol: as §1, §2, §3

IGF-1R = IGF-1R (Homo sapiens, UniProt P08069); settings: read-out: %Remaining activity at 1µM NU6300
Protocol: as §1, §2, §3

EPH-B4 = EPH-B4 (Homo sapiens, UniProt P54760); settings: EPH-B4, 1µM; read-out: %Remaining activity at 1µM NU6300
Protocol: as §1, §2, §3

MAPKAP-K3 = MAPKAP-K3 (Homo sapiens, UniProt Q16644); settings: MAPKAP-K3, 1µM; read-out: %Remaining activity at 1µM NU6300
Protocol: as §1, §2, §3

Aurora A = molecular target: T1, Aurora A (Homo sapiens, UniProt O14965); settings: read-out: %Remaining activity at 1µM NU6300
T1 sequence (O14965 1-403): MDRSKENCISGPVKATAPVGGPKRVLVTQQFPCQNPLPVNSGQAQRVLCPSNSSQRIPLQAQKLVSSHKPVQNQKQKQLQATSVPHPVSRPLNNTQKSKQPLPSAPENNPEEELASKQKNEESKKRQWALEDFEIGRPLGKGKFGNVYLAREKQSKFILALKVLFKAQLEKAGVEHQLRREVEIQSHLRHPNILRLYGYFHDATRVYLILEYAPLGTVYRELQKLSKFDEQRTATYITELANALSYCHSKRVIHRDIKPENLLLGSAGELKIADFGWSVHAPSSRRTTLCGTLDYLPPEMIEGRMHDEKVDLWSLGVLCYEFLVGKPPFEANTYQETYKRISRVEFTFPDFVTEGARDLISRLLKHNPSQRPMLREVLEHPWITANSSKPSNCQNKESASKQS
Protocol: as §1, §2, §3

BRK = BRK (Homo sapiens, UniProt Q13882); settings: read-out: %Remaining activity at 1µM NU6300
Protocol: as §1, §2, §3

IRAK4 = IRAK4 (Homo sapiens, UniProt Q9NWZ3); settings: IRAK4, 1µM; read-out: %Remaining activity at 1µM NU6300
Protocol: as §1, §2, §3

Lck = Lck (Homo sapiens, UniProt P06239); settings: read-out: %Remaining activity at 1µM NU6300
Protocol: as §1, §2, §3

IKKe = IKKe (Homo sapiens, UniProt Q14164); settings: read-out: %Remaining activity at 1µM NU6300
Protocol: as §1, §2, §3

EPH-A4 = EPH-A4 (Homo sapiens, UniProt P54764); settings: EPH-A4, 1µM; read-out: %Remaining activity at 1µM NU6300
Protocol: as §1, §2, §3

ERK2 = ERK2 (Homo sapiens, UniProt P28482); settings: ERK2, 1µM; read-out: %Remaining activity at 1µM NU6300
Protocol: as §1, §2, §3

EPH-B4, sequence (P54760 16-987): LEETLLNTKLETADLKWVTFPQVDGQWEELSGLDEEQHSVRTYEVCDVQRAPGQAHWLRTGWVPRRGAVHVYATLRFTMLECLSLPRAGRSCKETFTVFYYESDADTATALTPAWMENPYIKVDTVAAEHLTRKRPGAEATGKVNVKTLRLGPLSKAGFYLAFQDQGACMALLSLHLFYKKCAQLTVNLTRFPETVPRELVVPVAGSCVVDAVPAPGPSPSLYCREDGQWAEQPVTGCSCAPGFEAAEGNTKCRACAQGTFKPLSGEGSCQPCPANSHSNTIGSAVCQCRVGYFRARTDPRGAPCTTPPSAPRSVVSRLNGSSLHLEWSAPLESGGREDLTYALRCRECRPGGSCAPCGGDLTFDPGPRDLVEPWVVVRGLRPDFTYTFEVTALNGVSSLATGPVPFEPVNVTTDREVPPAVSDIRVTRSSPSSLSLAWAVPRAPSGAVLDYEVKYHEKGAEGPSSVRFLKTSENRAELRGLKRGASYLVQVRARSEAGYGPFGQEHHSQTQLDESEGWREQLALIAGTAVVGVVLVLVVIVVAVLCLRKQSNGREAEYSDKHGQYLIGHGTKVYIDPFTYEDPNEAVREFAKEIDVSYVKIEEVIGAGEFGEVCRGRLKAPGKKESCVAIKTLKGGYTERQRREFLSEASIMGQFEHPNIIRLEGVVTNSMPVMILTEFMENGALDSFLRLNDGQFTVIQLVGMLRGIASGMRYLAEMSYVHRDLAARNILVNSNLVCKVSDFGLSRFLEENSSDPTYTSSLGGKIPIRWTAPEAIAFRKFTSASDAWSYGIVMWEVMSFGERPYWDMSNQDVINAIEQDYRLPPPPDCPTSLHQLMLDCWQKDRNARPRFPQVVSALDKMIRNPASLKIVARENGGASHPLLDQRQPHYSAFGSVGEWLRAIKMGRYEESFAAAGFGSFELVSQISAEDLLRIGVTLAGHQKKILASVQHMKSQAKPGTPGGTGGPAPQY
DDR2, sequence (Q16832 22-855): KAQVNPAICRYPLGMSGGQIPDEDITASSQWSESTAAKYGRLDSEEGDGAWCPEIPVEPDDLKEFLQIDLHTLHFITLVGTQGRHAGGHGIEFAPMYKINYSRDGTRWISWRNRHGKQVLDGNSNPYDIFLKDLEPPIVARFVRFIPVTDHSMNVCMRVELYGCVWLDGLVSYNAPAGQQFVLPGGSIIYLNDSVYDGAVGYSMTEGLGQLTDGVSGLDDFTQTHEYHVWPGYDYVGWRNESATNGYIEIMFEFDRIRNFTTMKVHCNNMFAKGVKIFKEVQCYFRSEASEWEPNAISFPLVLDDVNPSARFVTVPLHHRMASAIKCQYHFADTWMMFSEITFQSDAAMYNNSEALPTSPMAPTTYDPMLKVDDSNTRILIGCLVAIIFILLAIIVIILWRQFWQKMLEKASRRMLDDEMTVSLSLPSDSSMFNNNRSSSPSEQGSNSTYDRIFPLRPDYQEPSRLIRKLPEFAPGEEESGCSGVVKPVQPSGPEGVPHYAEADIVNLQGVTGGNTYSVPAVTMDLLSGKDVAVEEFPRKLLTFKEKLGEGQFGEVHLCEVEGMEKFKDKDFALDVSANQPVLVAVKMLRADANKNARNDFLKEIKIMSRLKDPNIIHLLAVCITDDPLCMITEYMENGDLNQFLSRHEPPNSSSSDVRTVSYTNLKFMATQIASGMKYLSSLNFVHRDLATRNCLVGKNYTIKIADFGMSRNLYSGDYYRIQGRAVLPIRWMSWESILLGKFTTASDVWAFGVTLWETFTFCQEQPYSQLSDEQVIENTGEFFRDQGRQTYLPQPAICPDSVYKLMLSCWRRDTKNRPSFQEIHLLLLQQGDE
CK1δ, sequence (P48730 whole entry): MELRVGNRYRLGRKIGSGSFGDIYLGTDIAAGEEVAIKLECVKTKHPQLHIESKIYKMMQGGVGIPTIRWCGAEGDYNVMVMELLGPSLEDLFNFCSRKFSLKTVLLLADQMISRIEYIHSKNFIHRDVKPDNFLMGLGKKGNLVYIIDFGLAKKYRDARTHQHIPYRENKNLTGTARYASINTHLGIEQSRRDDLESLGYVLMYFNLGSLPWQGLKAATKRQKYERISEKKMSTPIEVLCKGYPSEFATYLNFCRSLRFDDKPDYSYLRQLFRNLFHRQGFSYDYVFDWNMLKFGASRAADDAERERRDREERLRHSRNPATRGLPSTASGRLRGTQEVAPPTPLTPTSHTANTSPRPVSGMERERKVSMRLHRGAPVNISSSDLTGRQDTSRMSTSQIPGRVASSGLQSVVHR
IGF-1R, sequence (P08069 31-1367): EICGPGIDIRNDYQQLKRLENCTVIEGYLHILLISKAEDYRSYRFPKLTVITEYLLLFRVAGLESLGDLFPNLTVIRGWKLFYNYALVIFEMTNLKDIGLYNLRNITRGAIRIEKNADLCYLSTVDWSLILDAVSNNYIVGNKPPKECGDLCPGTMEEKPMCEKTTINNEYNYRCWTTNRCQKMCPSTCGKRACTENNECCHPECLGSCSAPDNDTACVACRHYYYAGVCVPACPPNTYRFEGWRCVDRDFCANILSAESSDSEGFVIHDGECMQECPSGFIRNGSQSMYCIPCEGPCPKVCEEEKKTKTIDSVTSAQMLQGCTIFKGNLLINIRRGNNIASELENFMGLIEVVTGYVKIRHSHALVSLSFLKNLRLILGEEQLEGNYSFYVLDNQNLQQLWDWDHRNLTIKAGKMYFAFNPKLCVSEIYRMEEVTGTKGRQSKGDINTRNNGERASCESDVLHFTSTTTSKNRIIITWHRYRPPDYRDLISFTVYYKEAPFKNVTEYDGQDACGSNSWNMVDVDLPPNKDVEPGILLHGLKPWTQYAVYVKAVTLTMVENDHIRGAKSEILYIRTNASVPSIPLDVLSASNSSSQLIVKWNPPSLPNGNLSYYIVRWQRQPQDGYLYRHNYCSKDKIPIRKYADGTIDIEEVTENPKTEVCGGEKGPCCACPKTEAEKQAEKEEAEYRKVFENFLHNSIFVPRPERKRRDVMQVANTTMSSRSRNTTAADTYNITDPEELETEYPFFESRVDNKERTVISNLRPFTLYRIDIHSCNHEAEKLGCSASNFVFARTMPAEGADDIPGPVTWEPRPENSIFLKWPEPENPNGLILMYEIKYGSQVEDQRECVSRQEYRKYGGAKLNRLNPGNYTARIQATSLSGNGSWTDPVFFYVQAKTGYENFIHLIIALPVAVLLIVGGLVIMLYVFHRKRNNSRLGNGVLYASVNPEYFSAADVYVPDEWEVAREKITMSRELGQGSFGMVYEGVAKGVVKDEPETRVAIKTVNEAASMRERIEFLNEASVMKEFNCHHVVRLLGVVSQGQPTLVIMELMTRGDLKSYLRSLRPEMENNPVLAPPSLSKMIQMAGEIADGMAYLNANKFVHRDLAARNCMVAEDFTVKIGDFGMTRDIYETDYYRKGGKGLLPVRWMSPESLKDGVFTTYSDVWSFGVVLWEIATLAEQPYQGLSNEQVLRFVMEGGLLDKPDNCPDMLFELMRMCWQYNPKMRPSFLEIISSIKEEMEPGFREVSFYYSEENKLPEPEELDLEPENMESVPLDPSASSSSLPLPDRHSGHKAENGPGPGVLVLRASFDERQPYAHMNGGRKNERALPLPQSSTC
MAPKAP-K3, sequence (Q16644 whole entry): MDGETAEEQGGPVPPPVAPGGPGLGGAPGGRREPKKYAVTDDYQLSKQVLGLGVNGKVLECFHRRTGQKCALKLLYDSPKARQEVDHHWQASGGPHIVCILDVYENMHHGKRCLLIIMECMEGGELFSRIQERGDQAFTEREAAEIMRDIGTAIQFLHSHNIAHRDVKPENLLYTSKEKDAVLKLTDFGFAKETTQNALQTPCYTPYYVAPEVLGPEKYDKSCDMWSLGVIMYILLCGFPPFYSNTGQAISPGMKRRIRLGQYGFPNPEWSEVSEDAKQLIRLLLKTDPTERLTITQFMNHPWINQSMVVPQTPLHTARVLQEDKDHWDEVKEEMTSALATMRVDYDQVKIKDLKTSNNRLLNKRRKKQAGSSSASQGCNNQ
CHK2, sequence (O96017 whole entry): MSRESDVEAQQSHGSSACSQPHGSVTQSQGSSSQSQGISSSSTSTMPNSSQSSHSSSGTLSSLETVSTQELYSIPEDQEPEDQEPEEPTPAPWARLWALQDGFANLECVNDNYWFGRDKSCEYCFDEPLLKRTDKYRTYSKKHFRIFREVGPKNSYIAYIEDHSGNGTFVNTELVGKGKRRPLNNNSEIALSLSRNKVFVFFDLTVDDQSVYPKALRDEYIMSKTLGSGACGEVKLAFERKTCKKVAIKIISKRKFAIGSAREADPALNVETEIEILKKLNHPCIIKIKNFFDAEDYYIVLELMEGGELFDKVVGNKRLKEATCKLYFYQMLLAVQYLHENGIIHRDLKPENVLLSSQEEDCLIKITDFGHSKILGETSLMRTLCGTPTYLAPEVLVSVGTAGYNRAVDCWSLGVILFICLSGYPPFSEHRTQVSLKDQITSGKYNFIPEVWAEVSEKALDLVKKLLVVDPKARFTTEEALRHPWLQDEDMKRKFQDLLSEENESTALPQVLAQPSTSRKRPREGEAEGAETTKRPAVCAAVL
CSK, sequence (P41240 whole entry): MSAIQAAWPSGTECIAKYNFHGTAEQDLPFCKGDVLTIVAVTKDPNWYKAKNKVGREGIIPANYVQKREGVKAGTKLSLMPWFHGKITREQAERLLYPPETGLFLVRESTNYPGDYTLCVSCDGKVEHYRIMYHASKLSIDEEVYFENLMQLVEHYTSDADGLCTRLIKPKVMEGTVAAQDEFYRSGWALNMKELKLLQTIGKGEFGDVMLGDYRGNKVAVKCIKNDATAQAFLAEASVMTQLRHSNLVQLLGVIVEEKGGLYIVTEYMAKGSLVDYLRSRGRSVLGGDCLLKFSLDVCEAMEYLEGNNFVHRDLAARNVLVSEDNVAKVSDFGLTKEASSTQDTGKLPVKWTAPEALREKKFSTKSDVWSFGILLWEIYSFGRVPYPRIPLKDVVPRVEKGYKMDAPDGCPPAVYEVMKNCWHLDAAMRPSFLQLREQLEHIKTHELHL

Question: Which “%Remaining activity at 1µM NU6300” value (AMPK) does the source give for `C=CS(=O)(=O)c1ccc(Nc2nc(OCC3CCCCC3)c3nc[nH]c3n2)cc1` [NU6300, 6-(cyclohexylmethoxy)-N-(4-(vinylsulfonyl)phenyl)-9H-purin-2-amine] here?
Answer: 47%

Question: And the remaining activity at 1 µM (DYRK2)?
Answer: 78%

Question: And the remaining activity at 1 µM (EIF2AK3)?
Answer: 83%

Question: And the remaining activity at 1 µM (CK1δ)?
Answer: 83%

Question: And the remaining activity at 1 µM (CK1γ2)?
Answer: 79%

Question: What about the remaining activity at 1 µM (DDR2) of the same compound?
Answer: 60%

Question: And the remaining activity at 1 µM (MLK1)?
Answer: 8%

Question: And the remaining activity at 1 µM (JNK3)?
Answer: 37%

Question: And the remaining activity at 1 µM (ABL)?
Answer: 56%

Question: And the remaining activity at 1 µM (CSK)?
Answer: 82%

Question: And the remaining activity at 1 µM (IRR)?
Answer: 32%

Question: What about the remaining activity at 1 µM (CHK2) of the same compound?
Answer: 39%

Question: And the remaining activity at 1 µM (MELK)?
Answer: 55%

Question: What about the remaining activity at 1 µM (IGF-1R) of the same compound?
Answer: 79%

Question: And the remaining activity at 1 µM (EPH-B4)?
Answer: 90%

Question: And the remaining activity at 1 µM (MAPKAP-K3)?
Answer: 88%

Question: What about the remaining activity at 1 µM (Aurora A) of the same compound?
Answer: 18%

Question: What about the remaining activity at 1 µM (BRK) of the same compound?
Answer: 59%

Question: What about the remaining activity at 1 µM (IRAK4) of the same compound?
Answer: 78%

Question: What about the remaining activity at 1 µM (Lck) of the same compound?
Answer: 42%

Question: What about the remaining activity at 1 µM (IKKe) of the same compound?
Answer: 68%

Question: What about the remaining activity at 1 µM (EPH-A4) of the same compound?
Answer: 69%

Question: What about the remaining activity at 1 µM (ERK2) of the same compound?
Answer: 73%
